Values quoted from earlier work, collected in patent publication US20260193295A1, “CILAGICIN COMPOUNDS AND METHODS OF USE THEREOF” (priority 2022, published 2026).
Values after ≈ are worked out from the molar mass of the structure shown. Where two headings read alike, the source gives them in different places.

Tested on: vancomycin-resistant Enterococci clinical isolates
Conditions: cited from earlier work
[1] = Enterococci clinical isolate code 781
[2] = Enterococci clinical isolate code 782
[3] = Enterococci clinical isolate code 783
[4] = Enterococci clinical isolate code 784
[5] = Enterococci clinical isolate code 785
[6] = Enterococci clinical isolate code 786
[7] = Enterococci clinical isolate code 787
[8] = Enterococci clinical isolate code 788
[9] = Enterococci clinical isolate code 789
[10] = Enterococci clinical isolate code 790
[11] = Enterococci clinical isolate code 791
[12] = Enterococci clinical isolate code 792
[13] = Enterococci clinical isolate code 793
[14] = Enterococci clinical isolate code 794
[15] = Enterococci clinical isolate code 795
[16] = Enterococci clinical isolate code 796
[17] = Enterococci clinical isolate code 797
[18] = Enterococci clinical isolate code 798
[19] = Enterococci clinical isolate code 799
[20] = Enterococci clinical isolate code 800
[21] = Enterococci clinical isolate code 801
[22] = Enterococci clinical isolate code 802
[23] = Enterococci clinical isolate code 803
[24] = Enterococci clinical isolate code 804
[25] = Enterococci clinical isolate code 805
[26] = Enterococci clinical isolate code 806
[27] = Enterococci clinical isolate code 807
[28] = Enterococci clinical isolate code 808
[29] = Enterococci clinical isolate code 809
[30] = Enterococci clinical isolate code 810

Row | Compound | MIC [1] [µg/mL] | MIC [2] [µg/mL] | MIC [3] [µg/mL] | MIC [4] [µg/mL] | MIC [5] [µg/mL] | MIC [6] [µg/mL] | MIC [7] [µg/mL] | MIC [8] [µg/mL] | MIC [9] [µg/mL] | MIC [10] [µg/mL] | MIC [11] [µg/mL] | MIC [12] [µg/mL] | MIC [13] [µg/mL] | MIC [14] [µg/mL] | MIC [15] [µg/mL] | MIC [16] [µg/mL] | MIC [17] [µg/mL] | MIC [18] [µg/mL] | MIC [19] [µg/mL] | MIC [20] [µg/mL] | other results
1 | CC1(C)S[C@@H]2[C@H](NC(=O)[C@H](N)c3ccccc3)C(=O)N2[C@H]1C(=O)O [Ampicillin] | 1 (≈ 2.86 µM) | 1 (≈ 2.86 µM) | 64 (≈ 183 µM) | 1 (≈ 2.86 µM) | 2 (≈ 5.72 µM) | 0.5 (≈ 1.43 µM) | 8 (≈ 22.9 µM) | 1 (≈ 2.86 µM) | 0.12 (≈ 0.343 µM) | 64 (≈ 183 µM) | 1 (≈ 2.86 µM) | 64 (≈ 183 µM) | 1 (≈ 2.86 µM) | 64 (≈ 183 µM) | 2 (≈ 5.72 µM) | 2 (≈ 5.72 µM) | 1 (≈ 2.86 µM) | 1 (≈ 2.86 µM) | 1 (≈ 2.86 µM) | 1 (≈ 2.86 µM) | MIC [21]: 1 µg/mL (≈ 2.86 µM); MIC [22]: 64 µg/mL (≈ 183 µM); MIC [23]: 128 µg/mL (≈ 366 µM); MIC [24]: 1 µg/mL (≈ 2.86 µM); MIC [25]: 1 µg/mL (≈ 2.86 µM); MIC [26]: 4 µg/mL (≈ 11.4 µM); MIC [27]: 32 µg/mL (≈ 91.6 µM); MIC [28]: 2 µg/mL (≈ 5.72 µM); MIC [29]: 0.5 µg/mL (≈ 1.43 µM); MIC [30]: 1 µg/mL (≈ 2.86 µM)
2 | O=C(N[C@H](CO)[C@H](O)c1ccc([N+](=O)[O-])cc1)C(Cl)Cl [Chloramphenicol] | 8 (≈ 24.8 µM) | >32 | 16 (≈ 49.5 µM) | 4 (≈ 12.4 µM) | >32 | 16 (≈ 49.5 µM) | 32 (≈ 99 µM) | 8 (≈ 24.8 µM) | 16 (≈ 49.5 µM) | 8 (≈ 24.8 µM) | 8 (≈ 24.8 µM) | 4 (≈ 12.4 µM) | 8 (≈ 24.8 µM) | 8 (≈ 24.8 µM) | 32 (≈ 99 µM) | 8 (≈ 24.8 µM) | 8 (≈ 24.8 µM) | 16 (≈ 49.5 µM) | >32 | 16 (≈ 49.5 µM) | MIC [21]: 8 µg/mL (≈ 24.8 µM); MIC [22]: 8 µg/mL (≈ 24.8 µM); MIC [23]: 8 µg/mL (≈ 24.8 µM); MIC [24]: >32 µg/mL; MIC [25]: 8 µg/mL (≈ 24.8 µM); MIC [26]: 8 µg/mL (≈ 24.8 µM); MIC [27]: 32 µg/mL (≈ 99 µM); MIC [28]: 8 µg/mL (≈ 24.8 µM); MIC [29]: 8 µg/mL (≈ 24.8 µM); MIC [30]: 8 µg/mL (≈ 24.8 µM)
3 | CCCCCCCCCC(=O)N[C@@H](Cc1c[nH]c2ccccc12)C(=O)N[C@H](CC(N)=O)C(=O)N[C@@H](CC(=O)O)C(=O)N[C@@H]1C(=O)NCC(=O)N[C@@H](CCCN)C(=O)N[C@@H](CC(=O)O)C(=O)N[C@H](C)C(=O)N[C@@H](CC(=O)O)C(=O)NCC(=O)N[C@H](CO)C(=O)N[C@@H]([C@H](C)CC(=O)O)C(=O)N[C@@H](CC(=O)c2ccccc2N)C(=O)O[C@@H]1C [Daptomycin] | 4 (≈ 2.47 µM) | 2 (≈ 1.23 µM) | 4 (≈ 2.47 µM) | 4 (≈ 2.47 µM) | 2 (≈ 1.23 µM) | 0.5 (≈ 0.309 µM) | 8 (≈ 4.94 µM) | 1 (≈ 0.617 µM) | 8 (≈ 4.94 µM) | 4 (≈ 2.47 µM) | 1 (≈ 0.617 µM) | 4 (≈ 2.47 µM) | 4 (≈ 2.47 µM) | 4 (≈ 2.47 µM) | 1 (≈ 0.617 µM) | 2 (≈ 1.23 µM) | 1 (≈ 0.617 µM) | 1 (≈ 0.617 µM) | 2 (≈ 1.23 µM) | 2 (≈ 1.23 µM) | MIC [21]: 2 µg/mL (≈ 1.23 µM); MIC [22]: 4 µg/mL (≈ 2.47 µM); MIC [23]: 4 µg/mL (≈ 2.47 µM); MIC [24]: 1 µg/mL (≈ 0.617 µM); MIC [25]: 2 µg/mL (≈ 1.23 µM); MIC [26]: 4 µg/mL (≈ 2.47 µM); MIC [27]: 4 µg/mL (≈ 2.47 µM); MIC [28]: 4 µg/mL (≈ 2.47 µM); MIC [29]: 4 µg/mL (≈ 2.47 µM); MIC [30]: 4 µg/mL (≈ 2.47 µM)
4 | CC(=O)NC[C@H]1CN(c2ccc(N3CCOCC3)c(F)c2)C(=O)O1 [Linezolid] | 2 (≈ 5.93 µM) | 2 (≈ 5.93 µM) | 2 (≈ 5.93 µM) | 1 (≈ 2.96 µM) | 2 (≈ 5.93 µM) | 2 (≈ 5.93 µM) | 2 (≈ 5.93 µM) | 4 (≈ 11.9 µM) | 2 (≈ 5.93 µM) | 2 (≈ 5.93 µM) | 2 (≈ 5.93 µM) | 1 (≈ 2.96 µM) | 2 (≈ 5.93 µM) | 2 (≈ 5.93 µM) | 1 (≈ 2.96 µM) | 2 (≈ 5.93 µM) | 2 (≈ 5.93 µM) | 4 (≈ 11.9 µM) | 2 (≈ 5.93 µM) | 2 (≈ 5.93 µM) | MIC [21]: 2 µg/mL (≈ 5.93 µM); MIC [22]: 2 µg/mL (≈ 5.93 µM); MIC [23]: 4 µg/mL (≈ 11.9 µM); MIC [24]: 2 µg/mL (≈ 5.93 µM); MIC [25]: 2 µg/mL (≈ 5.93 µM); MIC [26]: 2 µg/mL (≈ 5.93 µM); MIC [27]: 2 µg/mL (≈ 5.93 µM); MIC [28]: 4 µg/mL (≈ 11.9 µM); MIC [29]: 2 µg/mL (≈ 5.93 µM); MIC [30]: 2 µg/mL (≈ 5.93 µM)
5 | CO[C@H]1/C=C/O[C@@]2(C)Oc3c(C)c(O)c4c(O)c(c(/C=N/N5CCN(C)CC5)c(O)c4c3C2=O)NC(=O)/C(C)=C\C=C\[C@H](C)[C@H](O)[C@@H](C)[C@@H](O)[C@@H](C)[C@H](OC(C)=O)[C@@H]1C [Rifampin] | 1 (≈ 1.22 µM) | 1 (≈ 1.22 µM) | >4 | ≤0.25 | 2 (≈ 2.43 µM) | 2 (≈ 2.43 µM) | ≤0.25 | >4 | >4 | >4 | 1 (≈ 1.22 µM) | 4 (≈ 4.86 µM) | 4 (≈ 4.86 µM) | 4 (≈ 4.86 µM) | 2 (≈ 2.43 µM) | >4 | 4 (≈ 4.86 µM) | ≤0.25 | 2 (≈ 2.43 µM) | 2 (≈ 2.43 µM) | MIC [21]: 0.5 µg/mL (≈ 0.608 µM); MIC [22]: ≤0.25 µg/mL; MIC [23]: >4 µg/mL; MIC [24]: 2 µg/mL (≈ 2.43 µM); MIC [25]: 2 µg/mL (≈ 2.43 µM); MIC [26]: >4 µg/mL; MIC [27]: >4 µg/mL; MIC [28]: >4 µg/mL; MIC [29]: 2 µg/mL (≈ 2.43 µM); MIC [30]: 2 µg/mL (≈ 2.43 µM)
6 | [H]/N=C(/N)N[C@H]1[C@H](O)[C@@H](O)[C@H](O[C@@H]2O[C@@H](C)[C@](O)(C=O)[C@H]2O[C@@H]2O[C@@H](CO)[C@H](O)[C@@H](O)[C@@H]2NC)[C@@H](N/C(N)=N\[H])[C@@H]1O [Streptomycin] | ≤1000 | >1000 | >1000 | ≤1000 | >1000 | ≤1000 | >1000 | ≤1000 | >1000 | >1000 | ≤1000 | ≤1000 | ≤1000 | >1000 | >1000 | ≤1000 | ≤1000 | ≤1000 | >1000 | ≤1000 | MIC [21]: ≤1000 µg/mL; MIC [22]: >1000 µg/mL; MIC [23]: >1000 µg/mL; MIC [24]: >1000 µg/mL; MIC [25]: ≤1000 µg/mL; MIC [26]: ≤1000 µg/mL; MIC [27]: >1000 µg/mL; MIC [28]: ≤1000 µg/mL; MIC [29]: >1000 µg/mL; MIC [30]: >1000 µg/mL
7 | CN[C@H](CC(C)C)C(=O)N[C@H]1C(=O)N[C@@H](CC(N)=O)C(=O)N[C@H]2C(=O)N[C@H]3C(=O)N[C@H](C(=O)N[C@H](C(=O)O)c4cc(O)cc(O)c4-c4cc3ccc4O)[C@H](O)c3ccc(c(Cl)c3)Oc3cc2cc(c3O[C@@H]2O[C@H](CO)[C@@H](O)[C@H](O)[C@H]2O[C@H]2C[C@](C)(N)[C@H](O)[C@H](C)O2)Oc2ccc(cc2Cl)[C@H]1O [Vancomycin] | >64 | 32 (≈ 22.1 µM) | 64 (≈ 44.2 µM) | 4 (≈ 2.76 µM) | 2 (≈ 1.38 µM) | 32 (≈ 22.1 µM) | >64 | 2 (≈ 1.38 µM) | >64 | >64 | 0.5 (≈ 0.345 µM) | >64 | 1 (≈ 0.69 µM) | >64 | 32 (≈ 22.1 µM) | 8 (≈ 5.52 µM) | 2 (≈ 1.38 µM) | 2 (≈ 1.38 µM) | >64 | 64 (≈ 44.2 µM) | MIC [21]: 4 µg/mL (≈ 2.76 µM); MIC [22]: >64 µg/mL; MIC [23]: >64 µg/mL; MIC [24]: 16 µg/mL (≈ 11 µM); MIC [25]: 1 µg/mL (≈ 0.69 µM); MIC [26]: 0.5 µg/mL (≈ 0.345 µM); MIC [27]: >64 µg/mL; MIC [28]: 4 µg/mL (≈ 2.76 µM); MIC [29]: >64 µg/mL; MIC [30]: 1 µg/mL (≈ 0.69 µM)
8 | Gentamicin | ≤500 | >500 | >500 | ≤500 | >500 | >500 | ≤500 | ≤500 | >500 | ≤500 | ≤500 | >500 | ≤500 | >500 | >500 | ≤500 | ≤500 | ≤500 | >500 | >500 | MIC [21]: >500 µg/mL; MIC [22]: >500 µg/mL; MIC [23]: >500 µg/mL; MIC [24]: >500 µg/mL; MIC [25]: ≤500 µg/mL; MIC [26]: ≤500 µg/mL; MIC [27]: ≤500 µg/mL; MIC [28]: ≤500 µg/mL; MIC [29]: ≤500 µg/mL; MIC [30]: ≤500 µg/mL
